{"source": "paper PMC10762035", "about": "“Molecular basis of human trace amine-associated receptor 1 activation” (Nature Communications, 2024)", "key": {"hTA1 R83H": {"target": "T1, hTA1 R83H (Homo sapiens, UniProt Q96RJ0, R83H)", "T1 construct": "expressed in transfected cells; host or cells: HEK293T", "T1 sequence (Q96RJ0 1-339 R83H)": "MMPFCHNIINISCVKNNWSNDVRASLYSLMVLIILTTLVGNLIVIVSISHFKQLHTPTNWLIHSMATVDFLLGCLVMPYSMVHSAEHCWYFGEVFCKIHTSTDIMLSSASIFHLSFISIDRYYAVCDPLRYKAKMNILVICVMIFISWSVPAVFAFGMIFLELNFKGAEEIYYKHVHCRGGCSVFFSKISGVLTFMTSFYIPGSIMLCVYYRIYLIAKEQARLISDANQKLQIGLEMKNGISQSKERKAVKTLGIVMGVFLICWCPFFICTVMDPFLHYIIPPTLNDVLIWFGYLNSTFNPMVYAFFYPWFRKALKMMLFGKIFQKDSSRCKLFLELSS", "test": "GloSensor cAMP accumulation assay, R83H mutant;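 further: cells transiently co-expressing hTA1 and a cAMP GloSensor, luminescence read 30 min after agonist addition at room temperature, concentration–response fitted by non-linear regression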", "format": "cell-based"}, "hTA1 F195T": {"target": "T2, hTA1 F195T (Homo sapiens, UniProt Q96RJ0, F195T)", "T2 construct": "expressed in transfected cells; host or cells: HEK293T", "T2 sequence (Q96RJ0 1-339 F195T)": "T1 sequence (Q96RJ0 1-339 R83H) with H83R, F195T", "test": "GloSensor cAMP accumulation assay, F195T mutant;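 further: cells transiently co-expressing HA-FLAG-tagged hTA1 and the GloSensor cAMP biosensor, luminescence read 30 min after agonist addition at room temperature, concentration-response fitted by nonlinear regression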", "format": "cell-based"}, "hTA1 C96S": {"target": "T3, hTA1 C96S (Homo sapiens, UniProt Q96RJ0, C96S)", "T3 construct": "expressed in transfected cells; host or cells: HEK293T", "T3 sequence (Q96RJ0 1-339 C96S)": "T1 sequence (Q96RJ0 1-339 R83H) with H83R, C96S", "test": "GloSensor cAMP accumulation assay, C96S mutant", "format": "cell-based", "details": "log[Compound]"}, "hTA1 T194A": {"target": "T4, hTA1 T194A (Homo sapiens, UniProt Q96RJ0, T194A)", "T4 sequence (Q96RJ0 1-339 T194A)": "T1 sequence (Q96RJ0 1-339 R83H) with H83R, T194A", "test": "GloSensor cAMP accumulation assay, T194A mutant", "details": "for cAMP accumulation response, individual replicate values of the concentration-response curve: hTA1 T194A, log[Agonist], Supplementary Figure 5 source data"}, "hTA1 C88S": {"target": "T5, hTA1 C88S (Homo sapiens, UniProt Q96RJ0, C88S)", "T5 construct": "expressed in transfected cells; host or cells: HEK293T", "T5 sequence (Q96RJ0 1-339 C88S)": "T1 sequence (Q96RJ0 1-339 R83H) with H83R, C88S", "test": "GloSensor cAMP accumulation assay, C88S mutant", "format": "cell-based", "details": "C88S"}}, "note": "Substitutions are numbered along the chain they refer to. Several values for one entry are separate records, joined by “and”; a condition that tells them apart may be missing. Identical values can stand only once.", "data": [{"smiles": "NCCc1ccc(Oc2ccc(O)cc2)c(I)c1", "note": "[T1AM, 3-iodothyronamine]", "values": [{"measurement": "ΔEmax values (each mutant value - WT average)", "setting": "hTA1 R83H; R83H mutant minus WT average", "value": -50.5458}, {"measurement": "Emax values, Mean", "setting": "hTA1 R83H; R83H mutant, β-PEA = 100, each line an independent experiment, 3 replicates", "value": "19.9005 and -6.007"}, {"measurement": "Span ± SEM (Emax normalized to β-PEA)", "setting": "hTA1 R83H; R83H, n=2", "value": "6.95 ± 12.95"}, {"measurement": "ΔpEC50 values (each mutant value - WT average), Mean", "setting": "hTA1 F195T; F195T mutant minus WT average, Figure 5B", "value": "-0.7125 and -0.7788"}, {"measurement": "pEC50 values, Mean", "setting": "hTA1 F195T; F195T mutant, Figure 5B, each row one independent experiment (3 replicates)", "value": "5.417 and 5.35"}, {"measurement": "Emax values, Mean", "setting": "hTA1 F195T; F195T mutant, Figure 5B, β-PEA = 100, each row one independent experiment (3 replicates)", "value": "72.2975 and 58.7221"}, {"measurement": "Span ± SEM (Emax normalized to β-PEA)", "setting": "hTA1 F195T; F195T, n=2", "value": "65.51 ± 6.79"}, {"measurement": "pEC50 ± SEM", "setting": "hTA1 F195T; F195T, n=2", "value": "6.67 ± 1.32"}, {"measurement": "EC50", "setting": "hTA1 F195T; F195T, n=2, read-out: EC50", "value": 0.213, "unit": "µM"}, {"measurement": "Normalized Luminescence Counts", "setting": "hTA1 C96S; C96S, M = -5, single replicates (N=2)", "value": "-4.527 and 0.08646 and -0.5726 and 12.7948 and 5.048 and 3.112"}, {"measurement": "Normalized Luminescence Counts", "setting": "hTA1 C96S; C96S, M = -5.522, single replicates (N=2)", "value": "-1.232 and -3.209 (2×) and 24.4145 and 1.175 and -2.698"}, {"measurement": "Normalized Luminescence Counts", "setting": "hTA1 C96S; C96S, M = -6, single replicates (N=2)", "value": "-1.891 and -5.845 and -6.504 and 30.2243 and -2.698 and -0.7614"}, {"measurement": "Normalized Luminescence Counts", "setting": "hTA1 C96S; C96S, M = -6.522, single replicates (N=2)", "value": "-5.186 (2×) and -5.845 and -10.4444 and -0.7614 and -2.698"}, {"measurement": "Normalized Luminescence Counts", "setting": "hTA1 C96S; C96S, M = -7, single replicates (N=2)", "value": "-3.209 and -6.504 and -1.891 and -14.3176 and -8.508 and -10.4444"}, {"measurement": "Normalized Luminescence Counts", "setting": "hTA1 C96S; C96S, M = -7.522, single replicates (N=2)", "value": "-1.891 and -5.186 (2×) and -4.6346 and 3.112 and -6.571"}, {"measurement": "Normalized Luminescence Counts", "setting": "hTA1 C96S; C96S, M = -8, single replicates (N=2)", "value": "0.08646 and -3.868 and -1.232 and 14.7315 and 18.6047 (2×)"}, {"measurement": "Normalized Luminescence Counts", "setting": "hTA1 C96S; C96S, M = -8.522, single replicates (N=2)", "value": "-1.891 and -1.232 (2×) and 14.7315 (2×) and 8.922"}, {"measurement": "Normalized Luminescence Counts", "setting": "hTA1 C96S; C96S, M = -9, single replicates (N=2)", "value": "-1.232 and -1.891 (2×) and 30.2243 and 37.9707 and 3.112"}, {"measurement": "Normalized Luminescence Counts", "setting": "hTA1 C96S; C96S, M = -9.522, single replicates (N=2)", "value": "-3.209 and -1.891 and -1.232 and 16.6681 and 5.048 and 20.5413"}, {"measurement": "Normalized Luminescence Counts", "setting": "hTA1 C96S; C96S, M = -10, single replicates (N=2)", "value": "2.064 and -0.5726 and 0.7455 and -0.7614 and -4.6346 and -6.571"}, {"measurement": "Normalized Luminescence Counts", "setting": "hTA1 C96S; C96S, M = -10.522, single replicates (N=2)", "value": "-1.891 and -3.868 and 0.08646 and 1.175 and -6.571 and -4.6346"}, {"measurement": "Normalized Luminescence Counts", "setting": "hTA1 C96S; C96S, M = -11, single replicates (N=2)", "value": "1.4045 and 0.7455 (2×) and 34.0975 (2×) and 14.7315"}, {"measurement": "Normalized Luminescence Counts", "setting": "hTA1 C96S; C96S, M = -11.522, single replicates (N=2)", "value": "1.4045 (2×) and -0.5726 and 24.4145"}, {"measurement": "Normalized Luminescence Counts", "setting": "hTA1 C96S; M = -11.522, single replicates, mutant block above C178S", "value": "-0.4742 (2×) and -0.6563 and 0.6424 and -0.05214 and -0.3727"}, {"measurement": "Normalized Luminescence Counts", "setting": "hTA1 C96S; M = -12, single replicates, mutant block above C178S", "value": "-0.08731 (2×) and -0.5653 and 0.1081 and 0.001279 (2×)"}, {"measurement": "Normalized Luminescence Counts", "setting": "hTA1 C96S; M = -12.522, single replicates, mutant block above C178S", "value": "-0.2011 and 0.5045 and -0.6791 and -0.1056 and 0.9095 and -0.05214"}, {"measurement": "pEC50 values, Mean", "setting": "hTA1 T194A; T149A (so in the source), single experiments (3 replicates each)", "value": "6.398 and 6.629 and 6.1942"}, {"measurement": "Emax values, Mean", "setting": "hTA1 T194A; T149A (so in the source), single experiments (3 replicates each), β-PEA = 100", "value": "79.7491 and 146.858 and 73.3036"}, {"measurement": "EC50", "setting": "hTA1 T194A; T194A", "value": 0.235, "unit": "µM"}, {"measurement": "Span ± SEM (Emax normalized to β-PEA)", "setting": "hTA1 T194A; T194A", "value": 99.97}, {"measurement": "pEC50 ± SEM", "setting": "hTA1 T194A; T194A", "value": "6.41 ± 0.14"}, {"measurement": "cAMP accumulation response, individual replicate values of the concentration-response curve", "setting": "hTA1 T194A; M = -7.522", "value": "6.402 and 2.253 and 5.81 and 6.799 and 11.9487 and 8.441"}, {"measurement": "cAMP accumulation response, individual replicate values of the concentration-response curve", "setting": "hTA1 T194A; M = -8", "value": "0.08035 and -1.303 and -0.1172 and 2.714 and 2.536 and 3.069"}, {"measurement": "cAMP accumulation response, individual replicate values of the concentration-response curve", "setting": "hTA1 T194A; M = -8.522", "value": "-1.5 and -0.9074 and -0.5123 and 0.09457 and 0.1834 and 0.5385"}, {"measurement": "cAMP accumulation response, individual replicate values of the concentration-response curve", "setting": "hTA1 T194A; M = -9", "value": "-0.9074 and -1.303 (2×) and -1.015 and -1.326 and -0.3494"}, {"measurement": "cAMP accumulation response, individual replicate values of the concentration-response curve", "setting": "hTA1 T194A; M = -9.522", "value": "-2.093 (3×) and -0.6158 and -1.149 and -0.527"}, {"measurement": "cAMP accumulation response, individual replicate values of the concentration-response curve", "setting": "hTA1 T194A; M = -10", "value": "-1.698 and -1.303 and -1.105 and -0.749 (2×) and -0.4382"}, {"measurement": "cAMP accumulation response, individual replicate values of the concentration-response curve", "setting": "hTA1 T194A; M = -10.522", "value": "-1.5 and -1.303 and -1.698 and -0.8822 and -1.326 and -0.971"}, {"measurement": "cAMP accumulation response, individual replicate values of the concentration-response curve", "setting": "hTA1 T194A; M = -11", "value": "-1.303 and -0.9074 and -0.3148 and -0.4826 and -0.9266 and 0.5385"}, {"measurement": "cAMP accumulation response, individual replicate values of the concentration-response curve", "setting": "hTA1 T194A; M = -11.522", "value": "-1.303 (2×) and -0.9074 and -0.4382 and -0.7046 and -0.3938"}, {"measurement": "cAMP accumulation response, individual replicate values of the concentration-response curve", "setting": "hTA1 T194A; M = -12", "value": "-0.5123 and -1.105 and -1.5 and -0.4826 and -0.5714 and -0.6158"}, {"measurement": "cAMP accumulation response, individual replicate values of the concentration-response curve", "setting": "hTA1 T194A; M = -12.522", "value": "-0.3148 (2×) and -0.5123 and -0.5714 (2×) and -0.305"}, {"measurement": "Emax values", "setting": "hTA1 C88S; Mean of fit per experiment", "value": "51.5909 and 77.2309"}, {"measurement": "pEC50 values", "setting": "hTA1 C88S; Mean of fit per experiment", "value": "6.196 and 6.127"}, {"measurement": "Span ± SEM (Emax normalized to β-PEA)", "setting": "hTA1 C88S; n=2", "value": 64.41}, {"measurement": "pEC50 ± SEM", "setting": "hTA1 C88S; n=2", "value": "6.16 ± 0.04"}, {"measurement": "EC50", "setting": "hTA1 C88S; n=2, read-out: EC50", "value": 0.69, "unit": "µM"}]}]}
